Measurements from US4066678A (priority 1975, dated 1978).

What was measured:
[1] = test system: Spontaneously Hypertensive Rats; assay: Effect of NaOGe on blood pressure of spontaneously hypertensive rats; type: in vivo, rats (SHR strain); conditions: in words
Protocol: To investigate the effect of NaOGe on hypertension, 100mg/kg/day of sodium salt of OGe had been administered to spontaneously hypertensive rats (SHR strain) and estimated the change of blood pressure.

Hygroscopic property = type: physicochemical
[2] = Clinical use: liver cirrhose; type: in vivo, patients; conditions: 100-200mg/body/day
Clinical use: epilepsy = type: in vivo, patients
Protocol: A large amount therapy, 100-500mg/body/day in a dosis, is performed. […] In these points, the patients are humanly matured.

[3] = Effect of NaOGe on essential hypertension in human being; type: in vivo; conditions: in words
Protocol: Dr. A. Ishikawa, of our research group, has investigated the effect of NaOGe on essential hypertension in human being. The adminstration of 40-150 mg/body of NaOGe was divided orally in two or three doses. The duration of drug administration was at the least 1 month, at the most 12 months. The following results are obtained:
(§1) *Numbers showing good response / total numbers

AH66 = assay: Effect on ascites hepatoma AH66 in rats; type: in vivo, Doryu rats; conditions: 100mg/kg/day for 10 days, all control rats died
Protocol: (§2) Dr. H. Sato, of our research group, investigated the antitumor effect of NaOGe by using several strains of ascites hepatoma in rats. For this investigation, the following […] strains of hepatoma were used: AH13, AH130, AH272, AH44, AH66F, AH7974, AH41C, AH60C and AH109A. 10^7 cells of each strain tumor were inoculated intravenously into the Doryu rats, 72 hours later, 100mg/kg/day of OGe was administered for 10 days.

[4] = Effect of NaOGe on Diabetes Mellitus in human being; type: in vivo; conditions: in words
Protocol: The duration of drug administration was at the least 1 month, at the most 12 months. The following results are obtained:
as §1
Dr. A. Ishikawa of our research group has investigated the effect of NaOGe on Diabetes Millitus in human being. The administration of 40-150 mg/kg body of NaOGe was divided orally in two or three doses.

[5] = Clinical use: digestive system; type: in vivo
Source text: The effect is found clearly by X-ray examination.

Clinical use: migrain = type: in vivo
[6] = Clinical use: loss of autonomic nervous system function; type: in vivo, patients
[7] = Effect of NaOGe on development of amyloidosis in mice; type: in vivo, ICR strain mice; conditions: in words
Protocol: From the above results, it was presumed that OGe might act not only hypertension but some of metabolic changes related to aging. Thus, the influence of NaOGe on the development of amyloidosis in mice was tested. The ICR strain mice had been treated with oral administration of NaOGe for 22 months. After that, all mice were sacrificed and the development of amyloidosis in several important organs was investigated.

Clinical use: hepatoma = conditions: in vivo
[8] = Clinical use: peripheral neuritis; type: in vivo, patients; conditions: 100mg/body/day
[9] = Clinical use: therapy of dysfunction liver (hepatitis); type: in vivo, patients
Protocol: In patients receiving 100mg/body/day of the drug, the improvement of alkali phosphatase, SGOT, SGPT, ASAC and α-GPT and abnormal fraction of serum-protein was observed.

[10] = Clinical use: general fatigue, malaise and asthenia; type: in vivo
Clinical use: depression = type: in vivo, patients; conditions: about 100mg/body/day oral
Source text: In moderate depression, about at the 8th day after drug administration, the improvement is observed.

[11] = Clinical use: effect in obstetrics; type: in vivo, patients
Source text: The drug is particularly-effective on various symptoms including morning sickness caused by pregnance.

AH44 = assay: Effect on ascites hepatoma AH44 in rats; type: in vivo, Doryu rats; conditions: 100mg/kg/day for 10 days, all control rats died
Protocol: as §2

ascites hepatoma = assay: Direct cytocidal action of NaOGe; set-up: species or system rats; conditions: in words
[12] = Clinical use: protective effect of drug administration for long periods; type: in vivo; conditions: 50mg/body/day administered with the others, long-term
[13] = Acute toxicity of NaOGe in mice; type: in vivo, Mice (ICR strain); conditions: mouse, in vivo, po; per os, male
Source text: (§3) Acute Toxicities of NaOGe according to the […]

Mice (ICR strain) = assay: Acute toxicity of NaOGe in mice; type: in vivo; conditions: per os, female
Source text: as §3

[14] = Acute toxicity of NaOGe in rats; type: in vivo, Rats (Wistar strain); conditions: rat, in vivo, po; per os, male
Source text: as §3

Rats (Wistar strain) = assay: Acute toxicity of NaOGe in rats; type: in vivo; conditions: per os, female
Source text: as §3

[15] = Clinical use: improvement of peripheral circulation; type: in vivo, patient
Source text: This is observed by plethysmography.

[16] = Clinical use: kidney function; conditions: in vivo
infants = assay: Clinical use: infants; type: in vivo
[17] = Clinical use: acceleration of heart function; type: in vivo, patients
[18] = Clinical use: allergic diseases; type: in vivo, patients
[19] = Clinical use: schizophrenia; type: in vivo, patients; conditions: 200-300mg/body/day oral
Protocol: The oral administration of 200mg/body/day ~ 300mg/body/day is necessary.

[20] = cadmium chloride 2.0 mg/kg iv alone, 8th day of gestation
[21] = 75mg/body/day, asthma bronchitis and chronic exanthema

Which “effect on hypertension in rats” value [1] does the source give for `O=C(O)C[CH2][Ge]([OH])([OH])[OH]` [OGe, 3-trihydroxygermylpropionic acid] here?
Its value is “highly effective on hypertension in rats and the effect appears gradually”.

What does the source list for `[Cl][Cd][Cl]` [Cadmium chloride]?
teratogenic action (golden hamster; 2.0mg/kg intravenously, 8th day of gestation, in words): produces cleft palate, exencepalia, harelips and open-eye lid; Living fetuses (golden hamster; [20]): 4.9%; Malformation (golden hamster; [20]): 25.5%; Resorbed embryos (golden hamster; [20]): 51.0%

For `O=C([O-])C[CH2][Ge]([OH])([OH])[OH].[NH4+]` [Ammonium 3-trihydroxygermylpropionate], which hygroscopic property (Hygroscopic property) is on record?
The hygroscopic property was “hydroscopic”.

What does the source list for `O=C([O-])C[CH2][Ge]([OH])([OH])[OH].[Na+]` [NaOGe, Sodium 3-trihydroxygermylpropionate]?
ascites [2]: beginning of the loss of ascites; liver function [2]: acceleration of the recovery of liver function; progress of liver dysfunction [2]: stopped the progress of liver dysfunction; EEG: epilepsy specific spike (Clinical use: epilepsy; 100-500mg/body/day oral): the loss of epilepsy specific spike is found; EEG: slow burst (Clinical use: epilepsy; 100-500mg/body/day oral): the inhibition of slow burst is not observed; drowsiness (Clinical use: epilepsy; 100-500mg/body/day oral): complete lack of drowsiness; grade of convulsion (Clinical use: epilepsy; 100-500mg/body/day oral): becomes lighter; interval of convulsion appearance (Clinical use: epilepsy; 100-500mg/body/day oral): becomes gradually longer; learning and working ability (Clinical use: epilepsy; 100-500mg/body/day oral): the improvement of learning -- and working -- ability is observed; absence of symptoms (Clinical use: epilepsy; continued oral administration, 100-500mg/body/day): many patients did not show any symptom; effect in treatment and prevention of essential hypertension [3]: effective in the treatment and the prevention of essential hypertension; treated rats showing a complete cure (AH66): half; effect on Diabetes Mellitus [4]: effective on Diabetes Mellitus; subjective symptoms and ulcers ([5]; X-ray examination): loss of subjective symptoms and the cure of ulcers; effect on constipation ([5]; in vivo): effective on constipation; movement of stomach and intestine ([5]; in vivo): modification of movement of stomach and intestine; effect compared with other therapy ([5]; ulcers): higher than any other therapy; effect on migraine (Clinical use: migrain; 75mg/body/day): effective on migraine; symptoms caused by brain-anemia (Clinical use: migrain; in vivo): shows the effect on the symptoms caused by brain-anemia; effect in patients resistant to other drugs ([6]; 75mg/body/day oral): shows the effect on many patients showing resistance against any other drugs; objective and functional abnormality of various organs controlled by autonomic nervous system ([6]; after drug administration): are not found after drug administration; development of amyloidosis ([7]; 30mg/kg/day): a clear prevention of the development was observed; development of amyloidosis ([7]; 300mg/kg/day): completely inhibited the development of amyloidosis; life span (Clinical use: hepatoma): increase of life span; effect on peripheral neuritis [8]: become to enjoy normal daily life without serious pain; alkali phosphatase, SGOT, SGPT, ASAC and α-GPT and abnormal fraction of serum-protein ([9]; 100mg/body/day): improvement; spontaneous cure of acute and chronic hepatitis ([9]; human, in vivo): acceleration of the spontaneous cure; symptoms of general fatigue, malaise and asthenia ([10]; 75mg/body/day): loss of the symptoms of general fatigue, malaise and asthenia; symptoms due to neurosis ([10]; increase of dose to 75mg/body/day): early the disappearance of the symptoms due to neurosis; depressive status (Clinical use: depression): improvement of depressive status; drowsiness (Clinical use: depression): does not give any drowsiness; initiation of autonomy (Clinical use: depression): clearly observed after drug administration; effect in serious patients indicated for artificial pregnance stopping ([11]; 100-200mg/body/day): effective one some serious patients; symptoms including morning sickness ([11]; human, in vivo): particularly-effective; hygroscopic property (Hygroscopic property): hydroscopic; treated rats showing a complete cure (AH44): half; Malformation produced by cadmium chloride (golden hamster; NaOGe 40.0mg/kg, simultaneous intravenous injection, in words): prevented completely; direct cytocidal action (ascites hepatoma): does not possess direct cytocidal action; side effects of tranquilizers and anti-tuberculosis drugs [12]: decrease of side effects; LD50 [13]: > 10000 mg/kg; LD50 (Mice (ICR strain)): over 10 g/kg; LD50 [14]: > 10000 mg/kg; LD50 (Rats (Wistar strain)): over 10 g/kg; cold exanthema ([15]; human, in vivo): protects the appearance of cold exanthema; peripheral circulating blood amount ([15]; single administration of 50 mg/body/day, plethysmography): increase of peripheral circulating blood amount; appearance of proteiureia [16]: the appearance of proteiureia is inhibited; diuretic effect [16]: diuretic effect is observed; actonic vomiting and autointoxication (infants; 20 - 50 mg/body/day): effective on actonic vomiting and autointoxication of infants; body weight (infants; 100-200mg/body/day, infants showing decrease of body weight): increase; blood-stream ([17]; 75-150mg/body/day): increase of blood-stream; ECG pattern ([17]; 75-150mg/body/day, patients with blood-loss ECG symptom): improvement of ECG pattern; effect on blood-vessels ([17]; from the effect on the eye ground symptoms): stabilizing effect of blood-vessels; subcutaneous bleeding of legs and hands ([17]; old people): inhibited; condition 6 months to 1 year after drug administration ([18]; 75mg/body/day, 6 months to 1 year): many patients show a condition looking like a complete cure; frequency of symptom-appearance [18, 21]: decrease of the frequency of symptom-appearance; interval of symptom appearance [18, 21]: becomes longer; use of adrenal cartex hormone [18, 21]: decrease of adrenal cartex hormone or stop of the hormone; drug allergic reaction ([18]; patients with drug allergy, given with an allergenic drug): any drug allergic reaction is not observed; hullucination [19]: the disappearance of hullucination is accelerated; self-recognization of the disease [19]: clearly found rather early after drug administration; working ability [19]: The working ability is observed
